Patent US20030013694A1, “Use and compositions of antiprogestins for treatment of prostate diseases” (priority 2001, published 2003)

How the values were obtained:
[1] = test system: LNCaP prostate tumor cells; assay: LNCaP human prostate cancer model in testosterone-supplemented male nude mice; type: in vivo; details: compared to control and castration
Description: Male nude mice (M&B) were supplemented with testosterone pellets (Innovative Research of America). LNCaP prostate cancer cells (obtainable from ATCC), obtained from cell culture and suspended in matrigel, were implanted s.c. in the inguinal region of the mice. Treatment was started when the tumors were approximately 25 mm^2 in size. Treatment was continued until progression of the tumors, Experimental groups were: 1) control (vehicle), 2) castration, 3) the antiandrogen casodex, 30 mg/kg s.c., 4) the antiprogestin mifepristone (RU-486), 10 mg/kg sec., and 5) 11β-(4-acetylphenyl)-17β-hydroxy-17α-(1,1,2,2,2-pentafluoroethyl)-estra-4,9-dien-3-one (antiprogestin (I)), 10 mg/kg sc., 5 times weekly. The tumor area was determined by caliper measurements. The Kruskal Wallis test was used for statistical analysis of intergroup differences of mean values. The tumor weight was determined at the end of the experiment.

R3327H = details: administered alone; R3327H prostate cancer model; cited from earlier work
[2] = test system: androgen-independent prostate cancer cells; details: in vitro and in vivo; cited from earlier work

Structure (SMILES)	tumor growth inhibition (tumor area by caliper) ([1]; 30 mg/kg s.c.)	tumor growth inhibition (tumor area by caliper) ([1]; 10 mg/kg s.c., 5 times weekly)	inhibition of tumor growth (R3327H)	effect on apoptosis [2]
CC(O)(CS(=O)(=O)c1ccc(F)cc1)C(=O)Nc1ccc(C#N)c(C(F)(F)F)c1 (centres unmarked) [casodex]	totally ineffective			
CC#C[C@]1(O)CC[C@H]2[C@@H]3CCC4=CC(=O)CCC4=C3[C@@H](c3ccc(N(C)C)cc3)C[C@@]21C [mifepristone]		totally ineffective	substantial inhibition of tumor growth	effective inhibitors of apoptosis
CC/C(=C(\c1ccccc1)c1ccc(OCCN(C)C)cc1)c1ccccc1 [tamoxifen]				effective inhibitors of apoptosis
